Data as given in PMC9112550, “Optimization of the antimicrobial peptide Bac7 by deep mutational scanning” (BMC Biology, 2022).
“Also recorded” adds a separate entry of the source. Where no end group is shown, it is not given here.

How the values were obtained:
CD-1 mice = test: Maximum tolerated dose / in vivo toxicity; parameters: species or system mouse
Method: CD-1 mice (7 weeks old, 27–28 g female) were used (Charles River, France). These animals were housed for a week of acclimation period before the experiment in a protected area in the ‘Centre de Zootechnie de l’Université de Bourgogne’ (Biosafety level 2 facility) and fed ad libitum according to the current recommendations by the European Institute of Health. Housing took place in rooms where a 12-h/12 h light/dark cycle is applied, the temperature ranges from 18 to 21°C and the relative humidity from 45 to 65%. The animal facility is authorized by the French authorities (Agreement N° C 21 464 04 EA). […]
For animal experiments, Bac7PS was synthesized at Genscript as acetate salt and with a purity of 92%. […] First, the maximum tolerated dose (MTD) for the peptide was determined by testing different peptide doses in 8 groups with 5 animals per group. The peptide solution was administered once by intraperitoneal (IP) injection with a volume of between 94 and 240 μl (depending on the weight of the animal and the dosage) and the animals were monitored for 2 h following the injection, then 6 to 8 h later, and then once or twice a day, depending on the clinical status, up to 5 days post-injection. […] As endpoint, the wellbeing and survival rate, on a twice daily based evaluation for up to 3 days, was monitored.

E. coli BW25113 = format: cell-based; conditions: E. coli BW25113 parental strain; MHB II; 18 h, 37°C; averaged (n>3)
Method: (§1) Bacterial cells were grown in cation-adjusted Mueller Hinton Broth (MHB II) overnight to stationary phase. The cultures were then supplemented with 200 g l^−1 glycerol, aliquoted, and frozen at −80°C. […] The purified peptides were thawed and the concentration was determined by RP-HPLC as described before. The peptides were diluted with sterile water to 4-fold the desired assays starting concentration and to a final volume of 50 μl. […] The first well of each MIC dilution series was filled with 20 μl of 2-fold concentrated MHB II, wells 2–11 with 20 μl of MHB II, and well 12 with 40 μl MHB II (sterility control). Next, 20 μl of the peptide dilution was added to the first well, mixed, and a log2-serial dilution was performed from wells 1 to 10 (20 μl transfer volume). Well 11 served as growth control (i.e., no peptide added). In the last step, 20 μl of the bacterial cell suspension was added to wells 1–11 either using the pipetting robot (E. coli TOP10, BW25113, BW25113 ΔsbmA, and ATCC 25922) or by manual pipetting (E. coli clinical isolates). The plates were sealed airtight and incubated for 18 h without shaking at 37°C before reading the OD using an Infinite 200 PRO plate reader (Tecan, Männedorf, CH). The MIC value corresponded to the concentration at which no growth of the bacterial strain was observed (< 5% of the OD value of the growth control) and was evaluated using a custom-written script in the programming language R. MIC values of E. coli TOP10, BW25113, BW25113 ΔsbmA, and ATCC 25922 were determined at least in biological triplicates. All MIC experiments were determined in technical replicate.

[1] = tested on: E. coli clinical isolates; format: cell-based; conditions: clinical isolates of E. coli (n=45) including MDR (ESBL, CRE); MHB II; 18 h, 37°C
Method: as §1

E. coli TOP10 = format: cell-based
Method: as §1

E. coli ATCC 25922 = format: cell-based; conditions: E. coli ATCC 25922 quality control strain; MHB II; 18 h, 37°C; averaged (n>3)
Method: as §1

E. coli BW25113 ΔsbmA = format: cell-based; conditions: MHB II, 18 h, 37°C, averaged (n>3)
Method: as §1

RRIRIRPPRLPRPRPRPYFMPRP [Bac7PS]
tolerability of a second administration (CD-1 mice; 40 mg kg^−1 IP, repeated 4 h after first dosing): does not influence the survival of mice; also recorded: tolerated
maximal dose at which all CD-1 mice survived (CD-1 mice; intraperitoneal, 3 days, single administration, 5 animals per group): 50 mg/kg
MIC (E. coli BW25113): 3.6 µM
MIC50 [1]: 2.9 µM
reduction of the MIC vs Bac7_1-23 (E. coli TOP10): approximately twofold
MIC (E. coli TOP10; MHB II, 18 h, 37°C, averaged (n>3), <5% of OD of growth control): 2.1 µM
MIC (E. coli ATCC 25922): 2.6 µM
MIC (E. coli BW25113 ΔsbmA): 14.4 µM
